Literature values in US7314882B2, “Bicyclic heterocycles as cannabinoid receptor modulators” (Bristol-Myers Squibb Company, priority 2005, dated 2008).

Tested on: body weight
Conditions: 16 week trial period

SMILES: Cc1c(C(=O)NN2CCCCC2)nn(-c2ccc(Cl)cc2Cl)c1-c1ccc(Cl)cc1 [SR-141716]
- body weight in human subjects: dose-dependently reduced body weight
